Experimental data taken from ChEMBL document CHEMBL4145686, “Discovery of a Potent and Selective Steroidal Glucocorticoid Receptor Antagonist (ORIC-101)” (J Med Chem, 2018).
The source made the active and inactive calls. The calls are words filed in the database; no cut-off is given here.

Assays:
Androgen receptor [1] = biological target: T1, Androgen receptor (Homo sapiens, UniProt P10275); assay: Agonist activity at AR (unknown origin) expressed in human LNCaP cells incubated for 20 hrs by luciferase reporter gene assay; format: cell-based
T1 sequence (P10275 whole entry): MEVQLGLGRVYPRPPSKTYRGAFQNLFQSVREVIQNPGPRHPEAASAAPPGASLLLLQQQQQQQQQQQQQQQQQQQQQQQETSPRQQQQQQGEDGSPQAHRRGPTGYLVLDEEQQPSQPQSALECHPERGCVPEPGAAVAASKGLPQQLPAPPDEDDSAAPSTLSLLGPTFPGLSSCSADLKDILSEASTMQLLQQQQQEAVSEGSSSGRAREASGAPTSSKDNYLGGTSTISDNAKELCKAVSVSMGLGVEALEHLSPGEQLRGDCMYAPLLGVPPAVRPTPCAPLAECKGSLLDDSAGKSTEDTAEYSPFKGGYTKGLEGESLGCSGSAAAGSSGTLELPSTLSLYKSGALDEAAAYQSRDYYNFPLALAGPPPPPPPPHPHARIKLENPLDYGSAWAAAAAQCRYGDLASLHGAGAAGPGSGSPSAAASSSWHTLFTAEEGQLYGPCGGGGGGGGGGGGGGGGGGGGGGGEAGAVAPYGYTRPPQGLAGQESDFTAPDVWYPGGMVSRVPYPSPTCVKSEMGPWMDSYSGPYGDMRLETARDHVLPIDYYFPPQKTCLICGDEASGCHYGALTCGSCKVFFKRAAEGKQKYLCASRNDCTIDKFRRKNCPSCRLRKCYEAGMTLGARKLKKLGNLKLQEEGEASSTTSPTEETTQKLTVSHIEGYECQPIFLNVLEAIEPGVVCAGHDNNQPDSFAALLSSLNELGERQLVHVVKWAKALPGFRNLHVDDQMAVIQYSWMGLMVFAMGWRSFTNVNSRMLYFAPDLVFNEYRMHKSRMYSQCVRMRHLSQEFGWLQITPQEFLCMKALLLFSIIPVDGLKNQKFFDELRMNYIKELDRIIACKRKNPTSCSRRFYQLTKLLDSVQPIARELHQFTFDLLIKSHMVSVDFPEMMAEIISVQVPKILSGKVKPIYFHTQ

androgen receptor (AR) = biological target: T2, androgen receptor (AR) (Homo sapiens, UniProt P10275); assay: Agonist activity at AR (unknown origin) expressed in human LNCaP cells incubated for 20 hrs by luciferase reporter gene assay relative to mifepristone; format: cell-based; conditions: human LNCaP cells expressing AR
T2 sequence (P10275 whole entry): T1 sequence (P10275 whole entry)

Androgen receptor [2] = biological target: T1, Androgen receptor; assay: Agonist activity at AR in human LNAR cells assessed as increase in PSA gene expression at 100 nM incubated for 24 hrs by RT-qPCR method; format: cell-based; conditions: 0.1 µM
Androgen receptor [3] = biological target: T1, Androgen receptor; assay: Agonist activity at AR in human MDA-MB-453 cells assessed as increase in […] gene expression at 111 to 333 nM incubated for 24 hrs by RT-qPCR method; format: cell-based; conditions: mda-mb-453, 24 h, 0.333 µM
[4] = Clearance in mini pig at 0.5 mg/kg, iv; format: ADME, organism-based, Sus scrofa; conditions: in vivo
[5] = Oral bioavailability in mini pig at 10 mg/kg; format: ADME, organism-based, Sus scrofa; conditions: in vivo
[6] = biological target: T3, Mineralocorticoid receptor (Homo sapiens, UniProt P08235); assay: Agonist activity at human MR expressed in CHO-K1 cells assessed as increase in protein interaction between MR and its coactivator SRC at 5 uM incubated for 24 hrs by beta-galactosidase based chemiluminescence assay; format: cell-based; conditions: cho-k1, 24 h
T3 sequence (P08235 whole entry): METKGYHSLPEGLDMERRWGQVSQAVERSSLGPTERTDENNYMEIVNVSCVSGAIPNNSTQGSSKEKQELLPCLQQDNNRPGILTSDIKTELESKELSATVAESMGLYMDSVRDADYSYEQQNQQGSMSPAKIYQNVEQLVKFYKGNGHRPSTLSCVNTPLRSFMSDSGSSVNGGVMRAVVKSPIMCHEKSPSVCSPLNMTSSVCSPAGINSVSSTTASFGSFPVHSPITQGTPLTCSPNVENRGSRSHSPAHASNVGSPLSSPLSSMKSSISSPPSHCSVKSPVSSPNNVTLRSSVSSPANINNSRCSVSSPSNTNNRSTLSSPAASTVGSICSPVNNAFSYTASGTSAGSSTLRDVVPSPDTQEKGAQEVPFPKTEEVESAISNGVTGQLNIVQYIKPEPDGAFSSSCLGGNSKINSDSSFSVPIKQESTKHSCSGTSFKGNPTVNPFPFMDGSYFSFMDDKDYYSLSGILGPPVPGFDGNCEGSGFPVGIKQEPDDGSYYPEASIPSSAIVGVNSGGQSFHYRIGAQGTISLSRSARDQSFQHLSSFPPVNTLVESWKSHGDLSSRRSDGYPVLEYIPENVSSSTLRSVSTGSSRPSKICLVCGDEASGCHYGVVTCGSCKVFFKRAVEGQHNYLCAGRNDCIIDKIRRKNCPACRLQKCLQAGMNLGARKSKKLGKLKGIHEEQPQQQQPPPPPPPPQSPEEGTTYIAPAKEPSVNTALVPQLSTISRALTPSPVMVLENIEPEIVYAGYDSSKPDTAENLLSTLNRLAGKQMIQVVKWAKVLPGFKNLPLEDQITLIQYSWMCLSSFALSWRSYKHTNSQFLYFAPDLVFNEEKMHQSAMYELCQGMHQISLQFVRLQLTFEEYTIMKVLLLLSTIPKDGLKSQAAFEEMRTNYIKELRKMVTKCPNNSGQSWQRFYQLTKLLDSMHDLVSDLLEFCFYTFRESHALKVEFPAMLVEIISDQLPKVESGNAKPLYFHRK

[7] = Antagonist activity at GR in monkey PBMC assessed as reduction in dexamethasone-induced GILZ gene expression incubated for 6 hrs by RT-qPCR method; format: cell-based; conditions: Macaca mulatta
OVCAR-5 = assay: Potentiation of carboplatin-induced antitumor activity against human OVCAR5 cells xenografted in chronic cortisol treated nude mouse assessed as reduction in tumor volume at 75 mg/kg, po BID dosed via gavage co-treated with gencitabine at 60 mg/kg dosed every 3 days for 4 doses; format: functional, organism-based

CC(C)N(C)c1ccc([C@H]2C[C@@]3(C)[C@@H](CC[C@@]3(O)C#CC(C)(C)C)[C@@H]3CCC4=CC(=O)CC[C@@H]4[C@H]32)cc1
EC50 (Androgen receptor [1]): > 2500 nM
Emax at 20 h (androgen receptor (AR)): 11%
Activity (Androgen receptor [2]): Not Active
Activity (Androgen receptor [3]): Not Active
clearance [4]: 18.3 mL/min/kg
bioavailability [5]: 20%
Activity [6]: Not Active
IC50 [7]: 14.9 nM
Activity (OVCAR-5): Active
